Reference: the NIST ThermoML archive (doi:10.1021/je400630f)

Experiment: xn = mol fraction of the nth substance listed
Conditions: 100 kPa, Liquid; for viscosity: Capillary tube (Ostwald / Ubbelohde) method

CCCCO [butan-1-ol] + CCO
Conditions	mass density, 283.15 K [kg/m3]	mass density, 293.15 K [kg/m3]	mass density, 298.15 K [kg/m3]	mass density, 303.15 K [kg/m3]	mass density, 313.15 K [kg/m3]	viscosity, 283.15 K [mPa·s]	viscosity, 293.15 K [mPa·s]	viscosity, 298.15 K [mPa·s]	viscosity, 303.15 K [mPa·s]	viscosity, 313.15 K [mPa·s]
x2 = 0	817.3	809.6	805.8	802.1	794.3	3.822	2.859	2.558	2.236	1.736
x2 = 0.1002	815.9	808.3	804.5	800.6	792.8	3.528	2.645	2.371	2.091	1.631
x2 = 0.2008	814.5	806.8	803	799.1	791.2	3.198	2.44	2.192	1.938	1.526
x2 = 0.3018	813.3	805.6	801.7	797.8	789.8	2.887	2.235	2.017	1.788	1.42
x2 = 0.4006	811.7	803.8	799.9	795.9	787.9	2.63	2.048	1.853	1.636	1.321
x2 = 0.5002	809.6	801.6	797.7	793.7	785.6	2.404	1.879	1.703	1.506	1.225
x2 = 0.6008	807.7	799.8	795.8	791.8	783.6	2.196	1.715	1.554	1.379	1.135
x2 = 0.7002	805.6	797.5	793.4	789.3	781	1.993	1.567	1.42	1.274	1.058
x2 = 0.7991	803.3	795.1	790.9	786.8	778.3	1.811	1.421	1.299	1.175	0.985
x2 = 0.8997	800.8	792.4	788.2	784.1	776	1.644	1.299	1.188	1.074	0.91
